Reference: patent publication US5986131A, “RXR selective ligands” (Hoffmann-La Roche Inc., priority 1997, dated 1999)
Entries after “also recorded” stand apart in the source; their conditions may differ. Read-outs that look alike come from different tables or passages of the source.

How the values were obtained:
RARα [1] = molecular target: T1, RARα (Homo sapiens, UniProt P10276); assay: RARα activation (transactivation); format: cell-based
T1 sequence (P10276 1-462): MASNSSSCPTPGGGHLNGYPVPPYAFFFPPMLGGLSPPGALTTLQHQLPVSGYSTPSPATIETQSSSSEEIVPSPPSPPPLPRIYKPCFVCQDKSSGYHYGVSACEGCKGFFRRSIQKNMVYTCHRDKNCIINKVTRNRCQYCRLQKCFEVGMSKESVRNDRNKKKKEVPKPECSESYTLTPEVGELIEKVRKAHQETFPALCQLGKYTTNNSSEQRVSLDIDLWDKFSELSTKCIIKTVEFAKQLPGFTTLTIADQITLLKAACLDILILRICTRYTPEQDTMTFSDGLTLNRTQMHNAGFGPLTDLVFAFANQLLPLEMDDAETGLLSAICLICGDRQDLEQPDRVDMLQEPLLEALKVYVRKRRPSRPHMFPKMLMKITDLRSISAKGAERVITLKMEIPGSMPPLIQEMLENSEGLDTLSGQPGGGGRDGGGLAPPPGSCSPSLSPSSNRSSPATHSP
Description: (§1) Methods essentially as described in those publications were used to determine the binding and transactivation properties of retinoids reported in the Examples herein.

RARα [2] = molecular target: T1, RARα; assay: RARα binding; conditions: Table 2; read-out: RARα binding IC50
Description: as §1

RXRα = molecular target: T2, RXRα (Homo sapiens, UniProt P19793); assay: RXRα binding; conditions: Table 2
T2 sequence (P19793 1-462): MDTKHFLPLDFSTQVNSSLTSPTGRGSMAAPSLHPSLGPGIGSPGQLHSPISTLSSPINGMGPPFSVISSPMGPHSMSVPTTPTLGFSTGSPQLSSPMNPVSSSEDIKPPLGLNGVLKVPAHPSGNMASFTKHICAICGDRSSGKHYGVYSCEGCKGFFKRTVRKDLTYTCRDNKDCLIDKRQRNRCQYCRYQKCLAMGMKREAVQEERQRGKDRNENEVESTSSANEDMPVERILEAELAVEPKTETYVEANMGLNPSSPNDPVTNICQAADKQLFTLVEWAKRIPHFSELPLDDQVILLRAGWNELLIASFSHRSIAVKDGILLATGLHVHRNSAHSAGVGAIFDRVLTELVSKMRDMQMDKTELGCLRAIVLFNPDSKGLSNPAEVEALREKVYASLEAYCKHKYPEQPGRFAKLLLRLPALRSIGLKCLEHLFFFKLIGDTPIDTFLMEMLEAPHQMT
Description: as §1

HL-60 cells = assay: HL-60 differentiation (NBT reduction); format: cell-based, human
Procedure: Under the influence of retinoids, HL-60 cells (a human myeloid leukemia cell line) differentiate into granulocytes. This differentiation of HL-60 cells into granulocytes is mediated by RARα, and so provides the basis for the use of retinoids to treat leukemia.
Retinoid-induced differentiation of HL-60 cells was assayed by measuring their oxidative burst potential via the reduction of NBT (Nitroblueterstazolium) [Pick et al., J. Reticuloendothelial Soc., 30:581-593 (1981)].
HL-60 cells were maintained in RPMI 1640 medium supplemented with 10% FCS, 2mM L-glutamine, ImM sodium pyruvate, 1% non-essential amino acids, 50 U/ml penicillin and 50 μg/ml streptomycin (=RPMI/FCS).
30,000 cells/[…] of RPMI/FCS were seeded into flat-bottomed microtiter wells. 10 μl of retinoids diluted in complete medium were added at the same time to yield final concentrations betweeen 10^-11 and 10^-6 M (stock solutions of 10^-2 M in ethanol were kep at -20° C. and protected from light). After 3 days, the medium was removed with a multichannel pipette and replaced with 100 μl of NBT solution (1 mg/ml in PBS with 200 nM phorbol myristate acetate (PMA). Following an additional hour incubation at 37° C. the NBT solution was removed and 100 μl of 10% SDS in 0.01 N HCl was added. The amount of the reduced NBT was quantified photometrically at 540 nm using an automated plate reader. The mean of 3 wells was calculated. S.E.M. were between 5 and 10%.

mouse B cell = assay: Inhibition of LPS-induced mouse B cell proliferation (3H-thymidine incorporation); format: cell-based
Procedure: Single cell suspensions of mouse spleen were set up in culture in flatbottomed 96 well Microtiter trays, 0.2 ml/well of a 2×10^5 /ml cell suspension in IMDM supplemented with 10% foetal calf serum, HEPES, antibiotics and 50 μM 2-mercaptoethanol. The specific B cell mitogen E. coli lipopolysaccharide (DIFCO) (LPS) was added at 50μg/ml. Cultures were incubated at 37° C. in a humidified atmosphere and 5% CO2.
The retinoids to be tested were first titrated in triplicate from 10 nM to 10 μM and left throughout the whole culture period. […] Cyclosporin A (Sandoz AG) was used as a reference compound (from 1 nM to 1 μM).
The cultures were then harvested on glass fiber filters and the radioactivity imcorporated into DNA measured in a β-liquid scintillation counter (Betaplate, Wallac Oy, Turku, Finland).
The results are expressed as % of the response of untreated cultures. […] Retinoids were added to the cultures at the beginning of the culture period.

human sebaceous cells = assay: Antiproliferative activity on human sebocytes in vitro; format: cell-based
Procedure: Sebaceous cells were isolated from adult human sebaceous glands by a combination of enzymatic and mechanical methods (Doran et al., 1991). The cells were cultured in Iscove's medium containing 10% fetal calf serum and 4 μg/ml dexamethasone on a layer of growth-arrested 3T3 mouse fibroblasts. Cells were plated in medium without the test compound and then given test compound in fresh medium 24-48 hours after the initial plating. The cultures were given fresh medium, containing the test compound, every 48 hours. On the day of harvesting, the cultures were rinsed with 0.03% EDTA in PBS, to remove only the 3T3 fibroblasts. followed by incubation in 0.05% trypsin/0.03% EDTA. The cells were suspended, mixed vigorously to prepare a single cell suspension and counted in a hemocytometer.
Stock solutions of compounds were made up as 10^-2 M solutions in 100% DMSO and stored at -20° C. in the dark. Compounds in solution were brought to room temperature and used by diluting directly into complete medium to the appropriate concentration.
The compounds of Example 12, Example 2, and Example 4 were tested for their effects on inhibiting the proliferation of first passage human sebaceous cells in vitro after 10 days of exposure to drug.

EC50 (RARα [1]; Table 1, read-out: Activation ED50, RARα): > 10 µM
EC50 (RARα [1]; Table 2, read-out: RARα activation ED50): > 10 µM
IC50 (RARα [2]): > 10 µM
IC50 (RXRα): 0.092 µM
SMILES: CC1=C(/C=C/C2=C(/C=C/C(C)=C/C(=O)O)CCCC2)C(C)(C)CCC1 [Example 4, (2E,4E)-3-Methyl-5-(2-((E)-2(2,6,6-trimethyl-1-cyclohexen-1-yl)ethenyl)-1-cyclohexen-1-yl)-2,4-pentadienoic acid]
activity as inducer of HL-60 differentiation compared with all-trans retinoic acid (HL-60 cells; FIG. 1): clearly less active
HL-60 differentiation activity by itself at potentiating concentrations (HL-60 cells; FIGS. 2 and 3, alone): not active by itself
activity as inducer of HL-60 differentiation (HL-60 cells; ×10^-6 M, alone): virtually inactive
potency relative to all-trans RA (mouse B cell; LPS induced mouse B cell proliferation): 1/100
IC50 (mouse B cell; Mus musculus, B-cell, 72 h, alone, FIG. 4, day 3): 0.1 µM
effect on B cell response at low doses (mouse B cell; day 4, low doses (=IC50 at day 3)): slightly enhancing the response
potentiation of inhibitory activity of all-trans RA on mouse B cell proliferation (mouse B cell; in combination with all-trans RA): potentiated the inhibitory activity of all-trans RA; also recorded: potentiates the effect of all-trans RA
inhibition by combination with 1 nM RA (mouse B cell; with 1 nM RA, day 4, FIG. 6): inhibition on the order of that induced by 10 nM RA
potentiation of effect of 1 nM all-trans RA (mouse B cell; with 1 nM all-trans RA, day 3, FIG. 5): potentiation of the effect of 1 nM RA to the level observed with 10 nM RA
excess RXR ligand over all-trans RA for potentiation (mouse B cell; with all-trans RA): 10 to 30 fold
magnitude of the potentiation (mouse B cell; with all-trans RA): roughly tenfold
inhibition of sebocyte proliferation (in words) (human sebaceous cells): poor dose response curve; also recorded: much weaker than 13-cis-retinoic acid
IC50 (human sebaceous cells; Homo sapiens, 240 h, first passage cells, 10 days of exposure, read-out: Inhibition of human sebaceous cell proliferation in vitro IC50): > 1 µM
